# Entries after “also recorded” stand apart in the source; their conditions may differ.
# Assays:
# CD11b+Gr-1− TAMs = assay: Gene expression profiling of TAMs (microarray); format: in vivo, mouse
# U-87 MG glioma cell line = assay: MTT assay, U-87 MG; format: cell-based, human; details: concentrations up to 6700 nM
# Experimental: (§1) U-87 MG (HTB-14) glioma and CRL-2467 microglia cell lines were purchased from ATCC. The U-87 MG cell line was cultured in DMEM+10% FBS. The CRL-2467 cell line was cultured in DMEM+10% FBS with 30 ng/ml recombinant mouse CSF-1.
# (§2) Cell growth rate was determined using the MTT cell proliferation kit (Roche). […] Media was changed every 48 hours. BMDM and CRL-2467 cells were supplemented with 10 ng/ml and 30 ng/ml recombinant mouse CSF-1 respectively unless otherwise indicated. Ten μl of MTT labeling reagent was added to each well and then incubated for 4 hours at 37° C., followed by the addition of 100 μl MTT solubilization reagent overnight. The mixture was gently resuspended and absorbance was measured at 595 nm and 750 nm on a SPECTRAMAX 340 pc plate reader (Molecular Devices).
# [1] = tested on: CRL-2467 microglia cell line; assay: MTT assay, CRL-2467 microglia; format: cell-based
# Experimental: as §1, §2
smiles,measurement,setting,value
CNC(=O)c1cc(Oc2ccc3nc(N[C@@H]4CCCC[C@H]4O)sc3c2)ccn1 [BLZ945],targets of Egr2 (GSEA),CD11b+Gr-1− TAMs; 7 days treatment,downregulated
same,upregulated differentially expressed genes,"CD11b+Gr-1− TAMs; BLZ945 versus vehicle, 7 days treatment",52 genes
same,classically activated/M1 macrophage markers,CD11b+Gr-1− TAMs; with the exception of IL-1 beta,not differentially expressed
same,U-87 MG human glioma cell proliferation,U-87 MG glioma cell line,no effect
same,survival / viability of microglia cell line,[1],reduced viability; also recorded: blocks survival

# — US20150119267A1, “INHIBITION OF COLONY STIMULATING FACTOR-1 RECEPTOR SIGNALING FOR THE TREATMENT OF BRAIN CANCER” (SLOAN-KETTERING INSTITUTE FOR CANCER RESEARCH, priority 2012, published 2015)
